The source of these data is patent US20090220516A1, “Neuroprotection of retinal ganglion cells” (priority 2005, published 2009).

As a reminder, the Kd is the free concentration of one partner at which half of the binding sites on the other are occupied at equilibrium, for simple one-to-one binding. Broadly, the inhibition is the drop in the measured response relative to a control, in per cent.

Several values for one entry are separate records, joined by “and”; a condition that tells them apart may be missing. Equal values may be shown once.

Test [1] deals with retinal ganglion cells. As to the kind of experiment: Intracellular Ca2+ measurements (fura-2): BzATP-triggered Ca2+ elevation in ganglion cells from mixed retinal cultures. The class given is cell-based, rat. The method, then:
(§1) Pups PD2-6 from untimed pregnant Long-Evan rats (Jackson Laboratory Inc., Bar Harbor, Me.) were back-labeled by the injection of FluoroGold derivative aminostilbamidine (Molecular Probes, Eugene, Oreg.) based upon standard protocols. […] Using a Hamilton syringe affixed to a micromanipulator, a needle was inserted 0.8 mm lateral from the midline and 0.8 mm anterior to Bregma's line and a total of 2.5 μl dye was delivered to each side at a depth of 2 mm and 1 mm. The needle was retracted after a delay of 2 min to allow dye absorption and the wound was closed with 2-3 sutures. Preliminary examination of labeled retinal whole mounts confirmed an even distribution of dye, showing all cells were stained 2 days after injection, with no further increase in the number of labeled cells in subsequent days. Consequently, retinas containing labeled ganglion cells were dissociated 2-6 days after injection. Animals were sacrificed by i.p. injection of 50/5 mg/kg Ketamine/Xylazine followed by an overdose, in accordance with University of Pennsylvania IACUC approved protocols and the ARVO Statement on the Use of Animals in Ophthalmic and Vision Research.
The retina was dissected from each globe, washed in sterile Hanks' balanced salt solution (HBSS, Gibco, Inc Invitrogen Corp., Carlsbad, Calif.), then incubated in HBSS containing activated papain (4.5 U/ml; Worthington Biochemical Corp., Lakewood, N.J.) for 12 minutes at 37° C. Retinas were washed twice and triturated 50 times with a 1-ml glass pipette to dissociate cells. Cells were plated onto twelve 12-mm coverslips previously coated with poly-L-lysine. The basic growth medium contained Neurobasal medium with 2 mM glutamine, 100 μg/ml gentamicin, 0.025 ml/ml B27 supplement (all Invitrogen Inc., Carlsbad, Calif.), 0.7% methylcellulose (Stemcell Technologies Inc., Vancouver, BC, Canada) and 2.5% rat serum (Cocalico Biologicals Inc., Reamstown, Pa.). Retinal cells were incubated at 37° C. with 5% CO2.
(§2) Unlabeled RGCs grown on coverslips for 24 hrs were loaded with 10 μM fura-2 and 2% pluoronic (Molecular Probes, Eugene, Oreg.) for 60-90 min at room temperature, rinsed and maintained in fura-2-free solution for 30 min before data acquisition began. The coverslips were mounted on a Nikon Diaphot inverted microscope and visualized with a 40× objective. […] To obtain Ca^2+ measurements, the field was alternatively excited at 340 nm and 380 nm with a scanning monocrometer and the fluorescence emitted >520 nm from a region of interest surrounding individual retinal ganglion cells was imaged with a CCD camera and analyzed (all Photon Technologies International, Inc., Lawrenceville, N.J.). Cells were perfused with a control solution at the start of Ca^2+imaging experiments containing (in mM) 105 NaCl, 4.5 KCl, 2.8 NaHepes, 7.2 Hepes acid, 1.3 CaCl2, 0.5 MgCl2, 5 glucose, 75 mannitol, pH 7.4. Drugs were dissolved into the control solution. Calibration was performed separately on each cell after the experiment by perfusing cells in the presence of 5 μM ionomycin and control solution (with 1.3 mM Ca2+) followed by ionomycin in the base solution without Ca^2+ and with the addition of 5 mM EGTA (pH 7.4). The 340/380 ratio was converted to Ca^2+ concentration as previously described. All experiments were performed at room temperature.
In Ca^2+ experiments, n refers to the number of responses tested. The BzATP concentration-response curve was fit with a standard exponential function y=y0+ae(−bx) using Sigmaplot software (SPSS Inc, Chicago, Ill.). The % block of Ca2+ elevations is defined as 100*(a−b)/a, where a is the response under control conditions and b is the response under experimental conditions. All materials are from Sigma Chemical Corp, (St. Louis, Mo.) unless otherwise indicated.

In test [2] the test system is isolated retinal ganglion cells. As to the kind of experiment: Intracellular Ca2+ measurements: BzATP-triggered Ca2+ elevation in isolated (immunopanned) retinal ganglion cells. The class given is cell-based, rat. Particulars: 50 μM BzATP 15 sec, purified ganglion cells. How it is done: as §2
(§3) Purification of ganglion cells using the panning procedure is based upon published methods (Hartwick et al., 2004). Neonatal rat retinas (PD 7-12) were dissected and incubated at 37° C. for 30 min in HBSS containing 15 U/mL papain, 0.2 mg/mL DLcysteine and 0.004% DNAse I (Worthington/Cooper, Lakewood, N.J.). The tissue was triturated in HBSS with 1.5 mg/ml ovomucoid (Worthington/Cooper, Lakewood, N.J.), 1.5 mg/ml BSA and 0.004% DNase I, centrifuged at 200 g for 11 minutes at room temperature, and cells were rewashed with 10 mg/ml ovomucoid-BSA solution. After centrifugation, cells were resuspended with PBS containing 0.2 mg/ml BSA and 5 μg/ml insulin and filtered through a Nitex mesh (Small Parts Inc, Miami Lakes, Fla.). […]

Test [3] relates to retinal ganglion cells. As to the kind of experiment: Cell viability studies: labeled retinal ganglion cells surviving after 24 hrs in mixed retinal cultures. The class given is cell-based, rat. Particulars: for reduction in the number of dead cells / protection against cell death triggered by BzATP: 50 uM BzATP + 100 nM A3 agonist. The method, then:
as §1
The retina was dissected from each globe, washed in sterile Hanks' balanced salt solution (HBSS, Gibco, Inc Invitrogen Corp., Carlsbad, Calif.), then incubated in HBSS containing activated papain (4.5 U/ml; Worthington Biochemical Corp., Lakewood, N.J.) for 12 minutes at 37° C. Retinas were washed twice and triturated 50 times with a 1-ml glass pipette to dissociate cells. Cells were plated onto twelve 12-mm coverslips previously coated with poly-L-lysine. […] Retinal cells were incubated at 37° C. with 5% CO2.
Drugs were added to the culture medium at the time when cells were plated onto coverslips. […] All counts were performed in a masked fashion. In experiments involving antagonist pretreatment, drugs were added to the medium at the time of plating. After preincubation at 37° C., stock concentrations of BzATP were added directly to the cells to give the final concentration shown.
Data are presented as mean±standard error of the mean. Significance was evaluated using a Student's unpaired t test, with a p value <0.05 signifying significance. For cell viability studies, the number of experiments, n, represents the number of coverslips from which 80 fields were measured and averaged. All values were normalized to the mean control level for that day's matched set of experiments to control for variation in plating efficiency.

In another test the test system is isolated ganglion cells. As to the kind of experiment: Glutamate release from isolated ganglion cells (GDH/NADH fluorescence). The test is classed as cell-based, rat. The method, then:
as §3
The measurement of glutamate was analogous to that used previously by the Haydon laboratory. […] NADH fluorescence is excited using a xenon arc lamp (100 watts) with a D360/10x exciter filter (Chroma Technology Corp., Brattleboro, Vt.), 510DRLP dichroic mirror (Omega Optical, Brattleboro, Vt.), and 515EFLP emission filter (Omega Optical). Images collected before, during and after the BzATP stimulus indicate the level of fluorescence. The percent increase in fluorescence, figured by dividing the change in fluorescence (ΔF) by the fluorescence level before stimulation (F0), represents the level of glutamate release. […]

The target of the next test is T1, human A2B receptors (Homo sapiens, UniProt P29275).
T1 sequence (P29275 1-332): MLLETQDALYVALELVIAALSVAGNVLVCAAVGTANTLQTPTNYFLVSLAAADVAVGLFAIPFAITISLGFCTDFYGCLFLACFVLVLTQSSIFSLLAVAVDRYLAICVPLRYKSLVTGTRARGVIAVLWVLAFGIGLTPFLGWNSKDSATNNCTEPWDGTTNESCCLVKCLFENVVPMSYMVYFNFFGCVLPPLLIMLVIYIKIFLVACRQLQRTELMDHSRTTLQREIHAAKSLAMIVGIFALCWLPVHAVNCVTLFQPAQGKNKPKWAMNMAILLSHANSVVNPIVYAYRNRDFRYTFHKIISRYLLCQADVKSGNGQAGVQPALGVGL
Particulars: cited from earlier work.

Where [4] appears, read: 50 uM BzATP + 100 nM A3 agonist (30 min before and during), 24 hrs.

In the case of `N[C@@H](CCCP(=O)(O)O)C(=O)O` [APV, D-amino-phosphonovalerate], the “mean reduction of Ca2+ elevation triggered by BzATP” value with retinal ganglion cells [1] (APV (100 μM in FIG. 2C, 300 μM in summary), 50 μM BzATP 15 sec) is 39.7±12.6%. Besides, the “block of Ca2+ response to BzATP” value in test [2] (100 μM APV) is 36.1±7.5%. Moreover, the “ganglion cell survival levels” value with retinal ganglion cells [3] (50 μM BzATP + APV, 24 hrs) came out at 77.8±5.9%.
As to `Nc1ncnc2c1ncn2[C@@H]1O[C@H](COP(=O)(O)OP(=O)(O)OP(=O)(O)O)[C@@H](OC(=O)c2ccc(C(=O)c3ccccc3)cc2)[C@H]1O` [BzATP], the “increase in absorbance at 360 nm (glutamate release)” value in the test on isolated ganglion cells (BzATP alone, 17 applications from 7 coverslips) was determined as 17.1±4.0%. Also, the “mean levels of Ca2+” value in the test on retinal ganglion cells [1] (first exposure to 50 μM BzATP alone, 15 sec) is 647.0 ± 80.7 nM; in the test with retinal ganglion cells [1] (third exposure to BzATP after removal of CI-IB-MECA) it was 600.3 ± 227.6 nM. Moreover, the “ganglion cell survival, % of control” value in the test on retinal ganglion cells [3] (50 μM BzATP alone, 24 hrs) was 62.9 % of control and 68.9±2.3 % of control and 56.8 % of control and 79.0±2.9 % of control.
For `CNC(=O)C1OC(n2cnc3c(NCc4cccc(I)c4)nc(Cl)nc32)C(O)C1O` (stereo not shown) [CI-IB-MECA, 2-chloro-N6-(3-iodobenzyl)-adenosine-5-N-methyluronamide], the dissociation constant (Kd) on human A2B receptors was > 100 µM. Also, the “block of Ca2+ increase, normalized to peak of first response” value in the test with retinal ganglion cells [1] (100 nM CI-IB-MECA, 50 μM BzATP 15 sec) was determined as 81%. In the test with retinal ganglion cells [1] (second BzATP application in presence of 100 nM CI-IB-MECA), the “mean levels of Ca2+” value was found to be 110.7 ± 32.8 nM. The “ganglion cell survival, % of control” value in the test with retinal ganglion cells [3] (setting [4]) was 80.1±4.7 % of control. Besides, in the test with retinal ganglion cells [3] (24 hrs), the “reduction in the number of dead cells / protection against cell death triggered by BzATP” value worked out at 54%.
Take `CNC(=O)[C@H]1O[C@@H](n2cnc3c(NCc4cccc(I)c4)ncnc32)[C@H](O)[C@@H]1O` [IB-MECA]: in the test on retinal ganglion cells [3] (setting [4]), the “ganglion cell survival, % of control” value is recorded as 98.5±2.7 % of control. The “reduction in the number of dead cells / protection against cell death triggered by BzATP” value with retinal ganglion cells [3] (24 hrs) came to 95%.
Regarding `C[C@]12N[C@H](Cc3ccccc31)c1ccccc12` [MK-801], the “decrease of Ca2+ elevation triggered by BzATP” value with retinal ganglion cells [1] (10 μM MK-801, 50 μM BzATP 15 sec, peak vs mean response before and after) amounted to 55.1±6.5%; in test [2] (10 μM MK-801) it was 50.1±5.5%. For the same compound, the “ganglion cell survival, % of control” value in the test with retinal ganglion cells [3] (50 μM BzATP + 10 μM MK-801, 24 hrs) is reported as 102.7±3.2 % of control.
Regarding `CN[C@H](CC(=O)O)C(=O)O` [NMDA, N-methyl-D-aspartate], the “ganglion cell survival, % of control” value in the test on retinal ganglion cells [3] (100 uM NMDA alone, 24 hrs) is on record as 69.9±3.2 % of control.
As for `Nc1ncnc2c1ncn2[C@@H]1O[C@H](CO)[C@@H](O)[C@H]1O` [adenosine], the “block of Ca2+ increase compared to BzATP alone” value in the test with retinal ganglion cells [1] (300 uM adenosine, two minute 50 uM BzATP) is listed as 85%. Also, the “effect on Ca2+ response to brief 50 uM BzATP” value in the test with retinal ganglion cells [1] (adenosine added with alternate BzATP applications, reversible, repeatable) is given as “greatly reduced the response”. In addition, the “peak Ca2+ levels” value in the test on retinal ganglion cells [1] (two minute application of 50 uM BzATP in presence of 300 uM adenosine (2 min pretreatment), n=7) was 215 ± 62 nM. Also, in the test with retinal ganglion cells [3] (50 μM BzATP + 300 uM adenosine (30 min before), 24 hours), the ganglion cell survival is on record as 91.2±3.5%. Besides, the “ganglion cell survival, % of control” value in the test on retinal ganglion cells [3] (50 μM BzATP + 1 mM adenosine, 24 hours) is on record as 92.4±2.5 % of control. The “ganglion cell counts, % of control” value in the test with retinal ganglion cells [3] (100 uM NMDA + 300 uM adenosine, 24 hrs) is given as 102.1±3.9 % of control.
As for `CCOc1ccc(Nc2ccc(/C(=C3C=C/C(=[N+](/CC)Cc4cccc(S(=O)(=O)[O-])c4)C=C/3C)c3ccc(N(CC)Cc4cccc(S(=O)(=O)[O-])c4)cc3C)cc2)cc1.[Na+]` [brilliant blue G], the “net absorbance change (glutamate release) in response to BzATP” value in the test with isolated ganglion cells (in presence of brilliant blue G, n=3) is listed as −0.9±0.9%.
As for `CC12CC3CC(C)(C1)CC(N)(C3)C2` [memantine], in the test on retinal ganglion cells [1] (30 μM memantine, in 4/7 experiments, effect variable, 50 μM BzATP), the “reduction of Ca2+ elevation triggered by BzATP” value is given as 65.5±6.7%. Also, the inhibition at 30 µM in test [2] (Rattus norvegicus, 30 μM memantine, read-out: inhibition of Ca2+ response to BzATP) was 18.4 ± 4.2%. Also, in the test on retinal ganglion cells [3] (50 μM BzATP + 100 μM memantine, 24 hrs), the “effect on ganglion cell survival” value is “neuroprotective”.
